Assay results as given in patent publication US20160287589A1, “SUBSTITUTED-IMIDAZOPYRIDAZINES” (BAYER PHARMA AKTIENGESELLSCHAFT, priority 2013, published 2016).

Assays:
MKNK1 [1] = target: T1, MKNK1 (Homo sapiens, UniProt Q9BUB5, T385D); assay: MKNK1 kinase high ATP assay (TR-FRET-based); type: biochemical; conditions: 2 mM ATP, 15 min preincubation
T1 construct: GST (N); purchased Carna Biosciences 02-145; host or cells: insect cells (baculovirus expression system)
In short: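 GST-tagged full-length human MKNK1 (aa 1-424, T344D) from insect cells, preincubated with compound 15 min at 22 °C. Reaction 30 min at 22 °C with 2 mM ATP and 0.06 μM biotinylated peptide in HEPES pH 7.5, Mg2+, DTT. Phosphopeptide detected by TR-FRET (665/622 ratio) with anti-pS6 (pSer236) antibody; normalised to no-inhibitor and no-enzyme controls.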

MKNK1 [2] = target: T1, MKNK1; assay: MKNK1 kinase assay (MKNK1 TR-FRET assay); type: biochemical; conditions: 10 μM ATP, 15 min preincubation
Source text: MKNK1-inhibitory activity of compounds of the present invention was quantified employing the MKNK1 TR-FRET assay as described in the following paragraphs.
A recombinant fusion protein of Glutathione-S-Transferase (GST, N-terminally) and human full-lengt MKNK1 (amino acids 1-424 and T344D of accession number BAA 19885.1), expressed in insect cells using baculovirus expression system and purified via glutathione sepharose affinity chromatography, was purchased from Carna Biosciences (product no 02-145) and used as enzyme. As substrate for the kinase reaction the biotinylated peptide biotin-Ahx-IKKRKLTRRKSLKG (C-terminus in amide form) was used which can be purchased e.g. form the company Biosyntan (Berlin-Buch, Germany).
For the assay 50 nL of a 100 fold concentrated solution of the test compound in DMSO was pipetted into a black low volume 384 well microtiter plate (Greiner Bio-One, Frickenhausen, Germany), 2 μL of a solution of MKNK1 in aqueous assay buffer [50 mM HEPES pH 7.5, 5 mM magnesium chloride, 1.0 mM dithiothreitol, 0.005% (v/v) Nonidet-P40 (Sigma)] was added and the mixture was incubated for 15 min at 22° C. to allow pre-binding of the test compounds to the enzyme before the start of the kinase reaction. […] The concentration of MKNK1 was adjusted depending of the activity of the enzyme lot and was chosen appropriate to have the assay in the linear range, typical concentrations were in the range of […]. The reaction was stopped by the addition of 5 μL of a solution of TR-FRET detection reagents (5 nM streptavidine-XL665 [Cisbio Bioassays, Codolet, France] and 1 nM anti-ribosomal protein S6 (pSer236)-antibody from Invitrogen [#44921G] and 1 nM LANCE EU-W1024 labeled ProteinG [Perkin-Elmer, product no. AD0071]) in an aqueous EDTA-solution (100 mM EDTA, 0.1% (w/v) bovine serum albumin in 50 mM HEPES pH 7.5).
The resulting mixture was incubated for 1 h at 22° C. to allow the formation of complex between the phosphorylated biotinylated peptide and the detection reagents. Subsequently the amount of phosphorylated substrate was evaluated by measurement of the resonance energy transfer from the Eu-chelate to the streptavidine-XL. Therefore, the fluorescence emissions at 620 nm and 665 nm after excitation at 350 nm were measured in a TR-FRET reader, e.g. a Rubystar (BMG Labtechnologies, Offenburg, Germany) or a Viewlux (Perkin-Elmer). The ratio of the emissions at 665 nm and at […] was taken as the measure for the amount of phosphorylated substrate. The data were normalised (enzyme reaction without inhibitor=0% inhibition, all other assay components but no enzyme=100% inhibition).

T1 sequence (Q9BUB5 1-424 isoform Q9BUB5-2 T344D): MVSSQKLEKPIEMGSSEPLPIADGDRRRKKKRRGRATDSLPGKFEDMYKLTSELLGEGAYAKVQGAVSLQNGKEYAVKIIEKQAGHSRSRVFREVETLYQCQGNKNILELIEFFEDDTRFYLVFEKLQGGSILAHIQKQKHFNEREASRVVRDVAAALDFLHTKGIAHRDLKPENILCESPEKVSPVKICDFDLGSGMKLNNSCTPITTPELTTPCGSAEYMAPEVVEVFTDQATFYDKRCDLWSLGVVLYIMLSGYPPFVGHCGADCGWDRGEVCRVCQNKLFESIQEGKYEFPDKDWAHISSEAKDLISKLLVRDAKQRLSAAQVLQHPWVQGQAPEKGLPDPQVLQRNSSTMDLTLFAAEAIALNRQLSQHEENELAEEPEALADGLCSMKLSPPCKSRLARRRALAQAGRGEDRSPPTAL

SMILES: O=C(NCCOc1ccc2ncc(-c3cc4ccccc4o3)n2n1)c1ccco1 [Example I-77, N-(2-{[3-(1-Benzofuran-2-yl)imidazo[1,2-b]-pyridazin-6-yl]oxy}ethyl)furan-2-carboxamide]
- IC50 (MKNK1 [1]; Table 2a): 22.2 nM
- IC50 (MKNK1 [2]; Table 1a): 7.9 nM

SMILES: COCCN(C)c1nccc2oc(-c3cnc4ccc(OC[C@H](C)N)nn34)cc12 [III-16, 2-(6-{[(2S)-2-Aminopropyl]oxy}imidazo[1,2-b]pyridazin-3-yl)-N-(2-methoxyethyl)-N-methylfuro[3,2-c]pyridin-4-amine]
- IC50 (MKNK1 [1]; Table 2c): 6 nM
- IC50 (MKNK1 [2]; Table 1c): 2.1 nM

SMILES: O=C(c1cnoc1)N1CCC[C@H]1CCOc1ccc2ncc(-c3cc4ccccc4o3)n2n1 [Example I-45, [(2S)-2-(2-{[3-(1-Benzofuran-2-yl)imidazo[1,2-b]-pyridazin-6-yl]oxy}ethyl)pyrrolidin-1-yl](1,2-oxazol-4-yl)methanone]
- IC50 (MKNK1 [1]; Table 2a): 1.8 nM
- IC50 (MKNK1 [2]; Table 1a): 1.3 nM

SMILES: C[C@@H]1CN(c2cccc3oc(-c4cnc5ccc(OC[C@@H]6CCC(=O)N6)nn45)cc23)CCO1 [II-72, (5S)-5-{[(3-{4-[(2R)-2-methylmorpholin-4-yl]-1-benzofuran-2-yl}imidazo[1,2-b]pyridazin-6-yl)oxy]methyl}pyrrolidin-2-one]
- IC50 (MKNK1 [1]; Table 2b): 33 nM
- IC50 (MKNK1 [2]; Table 1b): 15.7 nM

SMILES: C[C@H](N)COc1ccc2ncc(-c3cc4c(N5CCOC[C@H]5C)nccc4o3)n2n1 [III-25, (2S)-1-[(3-{4-[(3R)-3-Methylmorpholin-4-yl]furo[3,2-c]pyridin-2-yl}imidazo-[1,2-b]pyridazin-6-yl)oxy]propan-2-amine]
- IC50 (MKNK1 [1]; Table 2c): 13.7 nM
- IC50 (MKNK1 [2]; Table 1c): 9.2 nM

SMILES: CC(=O)NC[C@H](Oc1ccc2ncc(-c3cc4ccccc4o3)n2n1)c1cccnc1 [Example I-35, N-[(2R)-2-{[3-(1-Benzofuran-2-yl)imidazo[1,2-b]pyridazin-6-yl]oxy}-2-(pyridin-3-yl)ethyl]acetamide]
- IC50 (MKNK1 [1]; Table 2a): 47.8 nM
- IC50 (MKNK1 [2]; Table 1a): 17.9 nM

SMILES: CC1(C)CN(c2cccc3oc(-c4cnc5ccc(OC[C@@H]6CCC(=O)N6)nn45)cc23)CCN1 [II-36, (5S)-5-[({3-[4-(3,3-dimethylpiperazin-1-yl)-1-benzofuran-2-yl]imidazo[1,2-b]pyridazin-6-yl}oxy)methyl]pyrrolidin-2-one]
- IC50 (MKNK1 [1]; Table 2b): 1 nM
- IC50 (MKNK1 [2]; Table 1b): 2.3 nM

SMILES: Cc1cccc(C(=O)NCCOc2ccc3ncc(-c4cc5ccccc5o4)n3n2)c1 [Example I-69, N-(2-{[3-(1-Benzofuran-2-yl)imidazo[1,2-b]-pyridazin-6-yl]oxy}ethyl)-3-methylbenzamide]
- IC50 (MKNK1 [1]; Table 2a): 36.9 nM
- IC50 (MKNK1 [2]; Table 1a): 13.7 nM

SMILES: CCN(CCOC)c1cccc2oc(-c3cnc4ccc(OC[C@H]5CCC(=O)N5)nn34)cc12 [II-17, (5R)-5-{[(3-{4-[Ethyl(2-methoxyethyl)amino]-1-benzofuran-2-yl}imidazo[1,2-b]-pyridazin-6-yl)oxy]methyl}pyrrolidin-2-one]
- IC50 (MKNK1 [1]; Table 2b): 0.5 nM
- IC50 (MKNK1 [2]; Table 1b): 0.6 nM

SMILES: COC[C@H]1CCCN1c1cccc2oc(-c3cnc4ccc(O[C@H]5C[C@H](N)C5)nn34)cc12 [II-11, trans-3-[(3-{4-[(2R)-2-(Methoxymethyl)pyrrolidin-1-yl]-1-benzofuran-2-yl}imidazo[1,2-b]pyridazin-6-yl)oxy]cyclobutanamine]
- IC50 (MKNK1 [1]; Table 2b): 3.5 nM
- IC50 (MKNK1 [2]; Table 1b): 2.4 nM

SMILES: O=C(CC1CC1)N1CCC[C@H]1CCOc1ccc2ncc(-c3cc4ccccc4o3)n2n1 [Example I-51, 1-[(2S)-2-(2-{[3-(1-Benzofuran-2-yl)imidazo[1,2-b]-pyridazin-6-yl]oxy}ethyl)pyrrolidin-1-yl]-2-cyclopropylethanone]
- IC50 (MKNK1 [1]; Table 2a): 3.2 nM
- IC50 (MKNK1 [2]; Table 1a): 2.1 nM

SMILES: C[C@H]1CN(c2nccc3oc(-c4cnc5ccc(OCCCS(C)(=O)=O)nn45)cc23)CCN1 [III-143, 3-{4-[(3S)-3-methylpiperazin-1-yl]furo[3,2-c]pyridin-2-yl}-6-[3-(methylsulfonyl)propoxy] imidazo[1,2-b]pyridazine]
- IC50 (MKNK1 [1]; Table 2c): 10 nM
- IC50 (MKNK1 [2]; Table 1c): 3.7 nM

SMILES: CCCN(CCOC)c1nccc2oc(-c3cnc4ccc(O[C@H](C)CN)nn34)cc12 [III-33, 2-(6-{[(2R)-1-Aminopropan-2-yl]oxy}imidazo[1,2-b]pyridazin-3-yl)-N-(2-methoxyethyl)-N-propylfuro[3,2-c]pyridin-4-amine]
- IC50 (MKNK1 [1]; Table 2c): 1.3 nM
- IC50 (MKNK1 [2]; Table 1c): 1.1 nM

SMILES: CS(=O)(=O)CCCOc1ccc2ncc(-c3cc4c(N5CCN(c6ccccc6)CC5)cccc4o3)n2n1 [II-12, 6-[3-(Methylsulfonyl)propoxy]-3-[4-(4-phenylpiperazin-1-yl)-1-benzofuran-2-yl]-imidazo[1,2-b]pyridazine]
- IC50 (MKNK1 [1]; Table 2b): 67 nM
- IC50 (MKNK1 [2]; Table 1b): 24 nM

SMILES: CC1(C)CN(c2nccc3oc(-c4cnc5ccc(OC[C@@H]6CCC(=O)N6)nn45)cc23)CCO1 [III-132, (5S)-5-[({3-[4-(2,2-dimethylmorpholin-4-yl)furo[3,2-c]pyridin-2-yl]imidazo[1,2-b]pyridazin-6-yl}oxy)methyl]pyrrolidin-2-one]
- IC50 (MKNK1 [1]; Table 2c): 2.5 nM
- IC50 (MKNK1 [2]; Table 1c): 6.8 nM

SMILES: C[C@H]1CN(c2nccc3oc(-c4cnc5ccc(OCC(F)(F)F)nn45)cc23)CCN1 [III-145, 3-{4-[(3S)-3-methylpiperazin-1-yl]furo[3,2-c]pyridin-2-yl}-6-(2,2,2-trifluoroethox-y)imidazo[1,2-b]pyridazine]
- IC50 (MKNK1 [1]; Table 2c): 24 nM
- IC50 (MKNK1 [2]; Table 1c): 9.7 nM

SMILES: C[C@@H]1CN(c2nccc3oc(-c4cnc5ccc(OC[C@@H]6CCC(=O)N6)nn45)cc23)CCO1 [III-125, (5S)-5-{[(3-{4-[(2R)-2-methylmorpholin-4-yl]furo[3,2-c]pyridin-2-yl}imidazo[1,2-b]pyridazin-6-yl)oxy]methyl}pyrrolidin-2-one]
- IC50 (MKNK1 [1]; Table 2c): 7.1 nM
- IC50 (MKNK1 [2]; Table 1c): 7.4 nM

SMILES: COC[C@H]1CCCN1c1cccc2oc(-c3cnc4ccc(OCCCS(C)(=O)=O)nn34)cc12 [II-6, 3-{4-[(2R)-2-(Methoxymethyl)pyrrolidin-1-yl]-1-benzofuran-2-yl}-6-[3-(methyl-sulfonyl)propoxy]imidazo[1,2-b]pyridazine]
- IC50 (MKNK1 [1]; Table 2b): 14 nM
- IC50 (MKNK1 [2]; Table 1b): 7.1 nM

SMILES: CN(C)C1CCN(c2nccc3oc(-c4cnc5ccc(OCCCS(C)(=O)=O)nn45)cc23)CC1 [III-55, N,N-Dimethyl-1-(2-{6-[3-(methylsulfonyl)propoxy]imidazo[1,2-b]pyridazin-3-yl}furo[3,2-c]pyridin-4-yl)piperidin-4-amine]
- IC50 (MKNK1 [1]; Table 2c): 7.8 nM
- IC50 (MKNK1 [2]; Table 1c): 3.7 nM

SMILES: N[C@H]1C[C@H](Oc2ccc3ncc(-c4cc5c(N6CCOCC6)cccc5o4)n3n2)C1 [II-4, trans-3-({3-[4-(Morpholin-4-yl)-1-benzofuran-2-yl]imidazo[1,2-b]pyridazin-6-yl}oxy)cyclobutanamine]
- IC50 (MKNK1 [1]; Table 2b): 28 nM
- IC50 (MKNK1 [2]; Table 1b): 18 nM

SMILES: C[C@@H](N)COc1ccc2ncc(-c3cc4c(N5CCOCC5)nccc4o3)n2n1 [III-1, (2R)-1-({3-[4-(Morpholin-4-yl)furo[3,2-c]pyridin-2-yl]imidazo[1,2-b]pyridazin-6-yl}oxy)propan-2-amine]
- IC50 (MKNK1 [1]; Table 2c): 19.5 nM
- IC50 (MKNK1 [2]; Table 1c): 8.4 nM

SMILES: CCN(CCOC)c1nccc2oc(-c3cnc4ccc(OC[C@H]5COCCN5)nn34)cc12 [III-38, N-Ethyl-N-(2-methoxyethyl)-2-{6-[(3R)-morpholin-3-ylmethoxy]imidazo[1,2-b]pyridazin-3-yl}furo[3,2-c]pyridin-4-amine]
- IC50 (MKNK1 [1]; Table 2c): 4.8 nM
- IC50 (MKNK1 [2]; Table 1c): 0.5 nM

SMILES: CC1(C)CN(c2nccc3oc(-c4cnc5ccc(OC[C@H]6CCC(=O)N6)nn45)cc23)CCN1 [III-141, (5R)-5-[({3-[4-(3,3-dimethylpiperazin-1-yl)furo[3,2-c]pyridin-2-yl]imidazo[1,2-b]pyridazin-6-yl}oxy)methyl]pyrrolidin-2-one]
- IC50 (MKNK1 [1]; Table 2c): 1.4 nM
- IC50 (MKNK1 [2]; Table 1c): 3.3 nM
